Test results taken from PubChem BioAssay AID248 (DTP/NCI, 2004).
“And” between values parts separate entries of the source, which are not always exact repeats. Identical values can stand only once. Toxic doses and inconclusive results are not listed.

System: L1210 leukemia ip in BDF1 mice, survival T/C
Assay: NCI In Vivo Anticancer Drug Screen. Data for tumor model L1210 Leukemia (intraperitoneal) in B6D2F1 (BDF1) mice
Conditions: endpoint: mean survival time, higher = longer survival
Outline: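 Value reflects the ratio of survival in compound-treated mice to survival in vehicle-treated controls, with both groups carrying the same transplanted tumor.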

[1] = dose: 6.25 mg/kg/injection, schedule: Q01DX009 (ip), vehicle: saline
[2] = dose: 12.5 mg/kg/injection, schedule: Q01DX009 (ip), vehicle: saline
[3] = dose: 25.0 mg/kg/injection, schedule: Q01DX009 (ip), vehicle: saline
[4] = dose: 100.0 mg/kg/injection, schedule: Q01DX001 (ip), vehicle: carboxymethylcellulose (CMC)
[5] = dose: 200.0 mg/kg/injection, schedule: Q01DX001 (ip), vehicle: carboxymethylcellulose (CMC)
[6] = dose: 400.0 mg/kg/injection, schedule: Q01DX001 (ip), vehicle: carboxymethylcellulose (CMC)
[7] = dose: 50.0 mg/kg/injection, schedule: Q04DX003 (ip), vehicle: saline
[8] = dose: 100.0 mg/kg/injection, schedule: Q04DX003 (ip), vehicle: saline
[9] = dose: 200.0 mg/kg/injection, schedule: Q04DX003 (ip), vehicle: saline
[10] = dose: 100.0 mg/kg/injection, schedule: Q01DX009 (ip), vehicle: Klucel (hydroxypropylcellulose) (HPC)
[11] = dose: 200.0 mg/kg/injection, schedule: Q01DX009 (ip), vehicle: Klucel (hydroxypropylcellulose) (HPC)
[12] = dose: 400.0 mg/kg/injection, schedule: Q01DX009 (ip), vehicle: Klucel (hydroxypropylcellulose) (HPC)
[13] = dose: 50.0 mg/kg/injection, schedule: Q01DX009 (ip), vehicle: saline
[14] = dose: 50.0 mg/kg/injection, schedule: Q01DX009 (ip), vehicle: saline with Tween-80
[15] = dose: 50.0 mg/kg/injection, schedule: Q01DX001 (ip), vehicle: carboxymethylcellulose (CMC)
[16] = dose: 50.0 mg/kg/injection, schedule: Q01DX009 (ip), vehicle: Klucel (hydroxypropylcellulose) (HPC)
[17] = dose: 75.0 mg/kg/injection, schedule: Q01DX001 (ip), vehicle: saline
[18] = dose: 150.0 mg/kg/injection, schedule: Q01DX001 (ip), vehicle: saline
[19] = dose: 300.0 mg/kg/injection, schedule: Q01DX001 (ip), vehicle: saline
[20] = dose: 100.0 mg/kg/injection, schedule: Q01DX009 (ip), vehicle: saline with Tween-80
[21] = dose: 200.0 mg/kg/injection, schedule: Q01DX009 (ip), vehicle: saline with Tween-80
[22] = dose: 400.0 mg/kg/injection, schedule: Q01DX009 (ip), vehicle: saline with Tween-80

`CCC(C)NCCNCCNC(C)CC` (configuration not stated) was tested, and the T/C [1] was 101 % of control, the T/C (dose: 6.25 mg/kg/injection, schedule: Q04DX003 (ip), vehicle: Klucel (hydroxypropylcellulose) (HPC)) was 102 % of control and the T/C [2] was 108 % of control. For the same compound, the T/C (dose: 12.5 mg/kg/injection, schedule: Q04DX003 (ip), vehicle: Klucel (hydroxypropylcellulose) (HPC)) was 102 % of control, the T/C [3] was 90 % of control and the T/C (dose: 25.0 mg/kg/injection, schedule: Q04DX003 (ip), vehicle: Klucel (hydroxypropylcellulose) (HPC)) was 109 % of control.

With `Nc1cc(Br)cc2[nH]c(=O)c3cc(Br)ccc3c12` the T/C [4] was 100 % of control, the T/C [5] was 100 % of control and the T/C [6] was 102 % of control.

With `S=c1ssc2ccccc12` the T/C [7] was 100 % of control, the T/C (dose: 100.0 mg/kg/injection, schedule: Q01DX001 (ip), vehicle: saline) was 94 % of control and 96 % of control and the T/C [8] was 97 % of control. The T/C (dose: 200.0 mg/kg/injection, schedule: Q01DX001 (ip), vehicle: saline) was 94 % of control and 101 % of control, the T/C [9] was 97 % of control and the T/C (dose: 400.0 mg/kg/injection, schedule: Q01DX001 (ip), vehicle: saline) was 98 % of control.

In the case of `O=C(Cc1ccc(Cl)cc1)NC(NC(=O)Cc1ccc(Cl)cc1)C(Cl)(Cl)Cl`, the T/C [10] is reported as 102 % of control, the T/C [11] is reported as 96 % of control and the T/C [12] is reported as 88 % of control.

In the case of `CCOC(=O)N(C1CCCCC1)P(=O)(OCC)OCC`, the T/C [2] is reported as 96 % of control and 108 % of control, the T/C (dose: 12.5 mg/kg/injection, schedule: Q04DX003 (ip), vehicle: saline) is reported as 100 % of control and the T/C [3] is reported as 100 % of control and 91 % of control. The T/C (dose: 25.0 mg/kg/injection, schedule: Q04DX003 (ip), vehicle: saline) was 107 % of control, the T/C [13] was 97 % of control and 100 % of control and the T/C [7] was 110 % of control. For the same compound, the T/C (dose: 100.0 mg/kg/injection, schedule: Q01DX009 (ip), vehicle: saline) was 103 % of control and 91 % of control, the T/C [8] was 103 % of control and the T/C [9] was 100 % of control.

`Nc1ccc(CCCCc2ccccc2)cc1` was tested, and the T/C (dose: 25.0 mg/kg/injection, schedule: Q01DX009 (ip), vehicle: saline with Tween-80) was 96 % of control and the T/C [14] was 89 % of control.

In the case of `CCC(=O)c1cc2c(c3c1CCCC3)CCCC2`, the T/C (dose: 200.0 mg/kg/injection, schedule: Q01DX009 (ip), vehicle: other) is reported as 90 % of control.

With `O=[N+]([O-])CC(Nc1ccccc1)c1ccccc1` (configuration not stated) the T/C (dose: 12.5 mg/kg/injection, schedule: Q01DX009 (ip), vehicle: Klucel (hydroxypropylcellulose) (HPC)) was 108 % of control, the T/C (dose: 25.0 mg/kg/injection, schedule: Q01DX009 (ip), vehicle: Klucel (hydroxypropylcellulose) (HPC)) was 100 % of control and the T/C (dose: 50.0 mg/kg/injection, schedule: Q01DX001 (ip), vehicle: Klucel (hydroxypropylcellulose) (HPC)) was 96 % of control and 110 % of control. For the same compound, the T/C [15] was 102 % of control, the T/C [16] was 102 % of control and the T/C (dose: 100.0 mg/kg/injection, schedule: Q01DX001 (ip), vehicle: Klucel (hydroxypropylcellulose) (HPC)) was 97 % of control and 98 % of control. The T/C [4] was 102 % of control, the T/C (dose: 200.0 mg/kg/injection, schedule: Q01DX001 (ip), vehicle: Klucel (hydroxypropylcellulose) (HPC)) was 102 % of control and 107 % of control and the T/C [5] was 100 % of control. For the same compound, the T/C (dose: 400.0 mg/kg/injection, schedule: Q01DX001 (ip), vehicle: Klucel (hydroxypropylcellulose) (HPC)) was 105 % of control and the T/C [6] was 90 % of control.

With `C[n+]1ccccc1Cl` the T/C (dose: 50.0 mg/kg/injection, schedule: Q04DX002 (ip), vehicle: saline) was 115 % of control, the T/C (dose: 100.0 mg/kg/injection, schedule: Q04DX002 (ip), vehicle: saline) was 108 % of control and the T/C (dose: 200.0 mg/kg/injection, schedule: Q04DX002 (ip), vehicle: saline) was 110 % of control.

In the case of `O=c1c2ccccc2[nH]c2cc(-n3nnc4ccccc4c3=O)ccc12`, the T/C [17] is reported as 88 % of control, the T/C [18] is reported as 88 % of control and the T/C [19] is reported as 98 % of control.

With `CC(O)(C#CC(C)(O)c1ccccc1)c1ccccc1` (configuration not stated) the T/C [20] was 97 % of control, the T/C [21] was 98 % of control and the T/C [22] was 113 % of control.

With `CCOC(=O)C1CC2(OCCO2)c2c(OC)ccc(Cl)c2C1C` (configuration not stated) the T/C [17] was 102 % of control, the T/C [18] was 96 % of control and the T/C [19] was 94 % of control.

In the case of `CC1(C)N=C(N)N=C(N)N1c1cccc(C#N)c1`, the T/C (dose: 7.0 mg/kg/injection, schedule: Q01DX009 (ip), vehicle: saline) is reported as 118 % of control, the T/C (dose: 10.0 mg/kg/injection, schedule: Q01DX009 (ip), vehicle: saline) is reported as 116 % of control and the T/C (dose: 16.0 mg/kg/injection, schedule: Q01DX009 (ip), vehicle: saline) is reported as 113 % of control. For the same compound, the T/C (dose: 17.0 mg/kg/injection, schedule: Q01DX009 (ip), vehicle: saline) was 108 % of control, the T/C [3] was 123 % of control and the T/C (dose: 37.0 mg/kg/injection, schedule: Q01DX009 (ip), vehicle: saline) was 151 % of control and 161 % of control. The T/C (dose: 37.5 mg/kg/injection, schedule: Q01DX009 (ip), vehicle: saline) was 120 % of control, the T/C (dose: 56.0 mg/kg/injection, schedule: Q01DX009 (ip), vehicle: saline) was 172 % of control and the T/C (dose: 84.5 mg/kg/injection, schedule: Q01DX009 (ip), vehicle: saline) was 150 % of control.

`O=C(O)CNC(=O)/C(=C\c1[nH]c(=O)[nH]c(=O)c1Br)NC(=O)c1ccccc1` was tested, and the T/C [20] was 92 % of control, the T/C (dose: 100.0 mg/kg/injection, schedule: Q04DX003 (ip), vehicle: saline with Tween-80) was 104 % of control and the T/C [21] was 91 % of control. For the same compound, the T/C (dose: 200.0 mg/kg/injection, schedule: Q04DX003 (ip), vehicle: saline with Tween-80) was 104 % of control, the T/C [22] was 96 % of control and the T/C (dose: 400.0 mg/kg/injection, schedule: Q04DX003 (ip), vehicle: saline with Tween-80) was 107 % of control.

In the case of `CC1NCc2c(N)ncnc21` (configuration not stated), the T/C [4] is reported as 106 % of control, the T/C [5] is reported as 112 % of control and the T/C [6] is reported as 98 % of control.

With `c1ccc2c(c1)C1c3cccc[n+]3C2C2C1CC1C3c4ccccc4C(C12)[n+]1ccccc13` (configuration not stated) the T/C (dose: 1.56 mg/kg/injection, schedule: Q04DX003 (ip), vehicle: saline) was 100 % of control, the T/C (dose: 3.12 mg/kg/injection, schedule: Q01DX009 (ip), vehicle: saline) was 111 % of control and the T/C (dose: 3.12 mg/kg/injection, schedule: Q04DX003 (ip), vehicle: saline) was 96 % of control. For the same compound, the T/C [1] was 100 % of control and 88 % of control, the T/C (dose: 6.25 mg/kg/injection, schedule: Q04DX003 (ip), vehicle: saline) was 95 % of control and the T/C [2] was 100 % of control and 102 % of control.

For `c1ccc2c3csccc-3nc2c1`, the T/C [2] was 92 % of control, the T/C [3] was 98 % of control and the T/C [16] was 94 % of control. For the same compound, the T/C [13] was 97 % of control, the T/C [10] was 92 % of control and the T/C (dose: 100.0 mg/kg/injection, schedule: Q04DX003 (ip), vehicle: acetone) was 94 % of control and 98 % of control. The T/C [11] was 92 % of control and the T/C (dose: 200.0 mg/kg/injection, schedule: Q04DX003 (ip), vehicle: acetone) was 97 % of control.

For `CCCCCCOC(=O)C(O)c1ccccc1` (configuration not stated), the T/C [14] was 95 % of control, the T/C [20] was 98 % of control and the T/C [21] was 95 % of control.

In the case of `O=NN(CCCl)C(=O)Nc1ccccc1Cl`, the T/C [4] is reported as 87 % of control.

In the case of `CCOc1ccccc1/C=N\NC(=O)c1ccco1`, the T/C [4] is reported as 106 % of control, the T/C [5] is reported as 95 % of control and the T/C [6] is reported as 104 % of control.

With `Cc1cc(N(CCCl)CCCl)ccc1/C=N\Nc1nncn1N` the T/C (dose: 25.0 mg/kg/injection, schedule: Q01DX009 (ip), vehicle: carboxymethylcellulose (CMC)) was 122 % of control, the T/C [4] was 100 % of control and the T/C (dose: 100.0 mg/kg/injection, schedule: Q01DX009 (ip), vehicle: carboxymethylcellulose (CMC)) was 154 % of control. The T/C [5] was 100 % of control and the T/C [6] was 102 % of control.

For `c1ccc(NNC(c2ccccc2)(c2ccccc2)c2ccccc2)cc1`, the T/C [10] was 101 % of control, the T/C (dose: 100.0 mg/kg/injection, schedule: Q04DX003 (ip), vehicle: Klucel (hydroxypropylcellulose) (HPC)) was 101 % of control and the T/C [11] was 98 % of control. The T/C (dose: 200.0 mg/kg/injection, schedule: Q04DX003 (ip), vehicle: Klucel (hydroxypropylcellulose) (HPC)) was 95 % of control, the T/C [12] was 92 % of control and the T/C (dose: 400.0 mg/kg/injection, schedule: Q04DX003 (ip), vehicle: Klucel (hydroxypropylcellulose) (HPC)) was 95 % of control.

In the case of `CC(=S)Oc1cccc(C)c1`, the T/C [15] is reported as 102 % of control, the T/C [4] is reported as 98 % of control and the T/C [5] is reported as 96 % of control. The T/C [6] was 104 % of control.
